Values quoted from earlier work, collected in patent US20100248978A1, “METHOD FOR IDENTIFYING THE INTERACTION PARTNER OF AN ACTIVE AGENT” (Bayer Cropscience AG, priority 2007, published 2010).

Target: T1, p-hydroxyphenylpyruvate dioxygenase (HPPD) (Arabidopsis thaliana, UniProt P93836)
T1 sequence (P93836 1-445): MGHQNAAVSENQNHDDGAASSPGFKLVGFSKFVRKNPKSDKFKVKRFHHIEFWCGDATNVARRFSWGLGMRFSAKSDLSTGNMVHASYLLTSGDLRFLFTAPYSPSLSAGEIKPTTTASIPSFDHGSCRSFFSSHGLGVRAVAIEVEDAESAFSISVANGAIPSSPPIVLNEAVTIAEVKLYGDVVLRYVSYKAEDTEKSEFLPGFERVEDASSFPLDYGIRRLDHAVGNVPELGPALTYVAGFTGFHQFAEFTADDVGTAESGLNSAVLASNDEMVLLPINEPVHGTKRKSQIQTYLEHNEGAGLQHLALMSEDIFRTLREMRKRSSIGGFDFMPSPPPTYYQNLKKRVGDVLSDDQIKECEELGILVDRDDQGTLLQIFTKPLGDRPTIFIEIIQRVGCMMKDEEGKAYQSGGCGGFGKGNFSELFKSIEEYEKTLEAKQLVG

CS(=O)(=O)c1ccc(C(=O)C2C(=O)CCCC2=O)c(Cl)c1 [sulcotrione]
inhibition of HPPD: inhibits
